Measurements as given in the supplement of paper PMC10307832.

Key:
Assay in all cases: relative viability (nuclei count vs DMSO), 5 days (fraction); higher = more cells survive
Metformin + Palbociclib = compound: CN(C)C(=N)NC(=N)N [Metformin] + CC(=O)c1c(C)c2cnc(Nc3ccc(N4CCNCC4)cn3)nc2n(C2CCCC2)c1=O [Palbociclib] (partner 0.5 µM)
Procedure, shortened: (§1)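 The day after seeding in 1536-well plates, lung cancer cell lines were treated by pin tool with a single drug, or with a fixed anchor-drug dose together with five library-drug doses (not always all listed) in √10 steps. After 5 days, a combined fix-and-stain solution (final 0.05% Triton X-100, 1% formaldehyde, 1 ug/ml Hoechst) was added. Nuclei counted on 4× images gave relative viability as treated counts over vehicle counts, reported as the median of duplicate plates.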

Metformin + Navitoclax = compound: CN(C)C(=N)NC(=N)N [Metformin] + CC1(C)CCC(c2ccc(Cl)cc2)=C(CN2CCN(c3ccc(C(=O)NS(=O)(=O)c4ccc(N[C@H](CCN5CCOCC5)CSc5ccccc5)c(S(=O)(=O)C(F)(F)F)c4)cc3)CC2)C1 [Navitoclax] (partner 0.5 µM)
Procedure, shortened: as §1

Apatinib + Crizotinib = compound: N#CC1(c2ccc(NC(=O)c3cccnc3NCc3ccncc3)cc2)CCCC1 [Apatinib] + C[C@@H](Oc1cc(-c2cnn(C3CCNCC3)c2)cnc1N)c1c(Cl)ccc(F)c1Cl [Crizotinib] (partner 1 µM)
Procedure, shortened: as §1

Apatinib + Linsitinib = compound: N#CC1(c2ccc(NC(=O)c3cccnc3NCc3ccncc3)cc2)CCCC1 [Apatinib] + C[C@]1(O)C[C@@H](c2nc(-c3ccc4ccc(-c5ccccc5)nc4c3)c3c(N)nccn32)C1 [Linsitinib] (partner 1 µM)
Procedure, shortened: as §1

NCI-H2085 was tested, and the relative viability (Metformin + Palbociclib; first compound 10 µM) was 0.475, the relative viability (Metformin + Palbociclib; first compound 31.62 µM) was 0.447 and the relative viability (Metformin + Palbociclib; first compound 100 µM) was 0.469. It also gave a relative viability (Metformin + Palbociclib; first compound 316.23 µM) of 0.435, a relative viability (Metformin + Palbociclib; first compound 1000 µM) of 0.453 and a relative viability (Metformin + Navitoclax; first compound 10 µM) of 1.08. The relative viability (Metformin + Navitoclax; first compound 31.62 µM) was 1.12, the relative viability (Metformin + Navitoclax; first compound 100 µM) was 1.05 and the relative viability (Metformin + Navitoclax; first compound 316.23 µM) was 1.07. The relative viability (Metformin + Navitoclax; first compound 1000 µM) was 1.11, the relative viability (Apatinib + Crizotinib; first compound 0.08 µM) was 0.89 and the relative viability (Apatinib + Crizotinib; first compound 0.253 µM) was 0.794. The relative viability (Apatinib + Crizotinib; first compound 0.8 µM) was 0.797, the relative viability (Apatinib + Crizotinib; first compound 2.53 µM) was 0.777 and the relative viability (Apatinib + Crizotinib; first compound 8 µM) was 0.623. It also gave a relative viability (Apatinib + Linsitinib; first compound 0.08 µM) of 0.879, a relative viability (Apatinib + Linsitinib; first compound 0.253 µM) of 0.987 and a relative viability (Apatinib + Linsitinib; first compound 0.8 µM) of 0.949. The relative viability (Apatinib + Linsitinib; first compound 2.53 µM) was 0.745 and the relative viability (Apatinib + Linsitinib; first compound 8 µM) was 0.815.
For NCI-H441, the relative viability (Metformin + Palbociclib; first compound 31.62 µM) was 0.211, the relative viability (Metformin + Palbociclib; first compound 100 µM) was 0.165 and the relative viability (Metformin + Palbociclib; first compound 316.23 µM) was 0.215. It also gave a relative viability (Metformin + Palbociclib; first compound 1000 µM) of 0.238, a relative viability (Metformin + Navitoclax; first compound 10 µM) of 0.408 and a relative viability (Metformin + Navitoclax; first compound 100 µM) of 0.55. The relative viability (Metformin + Navitoclax; first compound 1000 µM) was 0.486, the relative viability (Apatinib + Crizotinib; first compound 0.08 µM) was 0.789 and the relative viability (Apatinib + Crizotinib; first compound 0.253 µM) was 0.756. It also gave a relative viability (Apatinib + Crizotinib; first compound 0.8 µM) of 0.809, a relative viability (Apatinib + Crizotinib; first compound 2.53 µM) of 0.416 and a relative viability (Apatinib + Crizotinib; first compound 8 µM) of 0.426. For the same cell line, the relative viability (Apatinib + Linsitinib; first compound 0.08 µM) was 0.596, the relative viability (Apatinib + Linsitinib; first compound 0.253 µM) was 0.61 and the relative viability (Apatinib + Linsitinib; first compound 0.8 µM) was 0.628. It also gave a relative viability (Apatinib + Linsitinib; first compound 2.53 µM) of 0.422 and a relative viability (Apatinib + Linsitinib; first compound 8 µM) of 0.303.
PC-3 [JPC-3] was tested, and the relative viability (Metformin + Palbociclib; first compound 10 µM) was 0.444, the relative viability (Metformin + Palbociclib; first compound 31.62 µM) was 0.466 and the relative viability (Metformin + Palbociclib; first compound 316.23 µM) was 0.46. The relative viability (Metformin + Palbociclib; first compound 1000 µM) was 0.503, the relative viability (Metformin + Navitoclax; first compound 10 µM) was 0.702 and the relative viability (Metformin + Navitoclax; first compound 31.62 µM) was 0.735. For the same cell line, the relative viability (Metformin + Navitoclax; first compound 100 µM) was 0.821, the relative viability (Metformin + Navitoclax; first compound 316.23 µM) was 0.761 and the relative viability (Metformin + Navitoclax; first compound 1000 µM) was 0.732. It also gave a relative viability (Apatinib + Crizotinib; first compound 0.08 µM) of 1.02, a relative viability (Apatinib + Crizotinib; first compound 0.253 µM) of 0.962 and a relative viability (Apatinib + Crizotinib; first compound 0.8 µM) of 0.922. The relative viability (Apatinib + Crizotinib; first compound 2.53 µM) was 0.933, the relative viability (Apatinib + Crizotinib; first compound 8 µM) was 0.901 and the relative viability (Apatinib + Linsitinib; first compound 0.08 µM) was 0.98. It also gave a relative viability (Apatinib + Linsitinib; first compound 0.253 µM) of 0.961, a relative viability (Apatinib + Linsitinib; first compound 0.8 µM) of 0.885 and a relative viability (Apatinib + Linsitinib; first compound 2.53 µM) of 0.797. It also gave a relative viability (Apatinib + Linsitinib; first compound 8 µM) of 0.894.
NCI-H1944 gave a relative viability (Metformin + Palbociclib; first compound 10 µM) of 0.386, a relative viability (Metformin + Palbociclib; first compound 31.62 µM) of 0.44 and a relative viability (Metformin + Palbociclib; first compound 100 µM) of 0.404. The relative viability (Metformin + Palbociclib; first compound 316.23 µM) was 0.344, the relative viability (Metformin + Palbociclib; first compound 1000 µM) was 0.404 and the relative viability (Metformin + Navitoclax; first compound 10 µM) was 0.968. It also gave a relative viability (Metformin + Navitoclax; first compound 31.62 µM) of 1.04, a relative viability (Metformin + Navitoclax; first compound 100 µM) of 1.04 and a relative viability (Metformin + Navitoclax; first compound 316.23 µM) of 0.966. The relative viability (Metformin + Navitoclax; first compound 1000 µM) was 1.07, the relative viability (Apatinib + Crizotinib; first compound 0.08 µM) was 1.03 and the relative viability (Apatinib + Crizotinib; first compound 0.253 µM) was 1.17. For the same cell line, the relative viability (Apatinib + Crizotinib; first compound 0.8 µM) was 0.998, the relative viability (Apatinib + Crizotinib; first compound 2.53 µM) was 0.983 and the relative viability (Apatinib + Crizotinib; first compound 8 µM) was 0.911. For the same cell line, the relative viability (Apatinib + Linsitinib; first compound 0.08 µM) was 1.19, the relative viability (Apatinib + Linsitinib; first compound 0.253 µM) was 1.22 and the relative viability (Apatinib + Linsitinib; first compound 0.8 µM) was 1.06. For the same cell line, the relative viability (Apatinib + Linsitinib; first compound 2.53 µM) was 1.25 and the relative viability (Apatinib + Linsitinib; first compound 8 µM) was 1.26.
CAL-12T gave a relative viability (Metformin + Palbociclib; first compound 10 µM) of 0.579, a relative viability (Metformin + Palbociclib; first compound 31.62 µM) of 0.53 and a relative viability (Metformin + Palbociclib; first compound 100 µM) of 0.488. It also gave a relative viability (Metformin + Palbociclib; first compound 316.23 µM) of 0.384, a relative viability (Metformin + Palbociclib; first compound 1000 µM) of 0.423 and a relative viability (Metformin + Navitoclax; first compound 31.62 µM) of 1.35. It also gave a relative viability (Metformin + Navitoclax; first compound 100 µM) of 1.14, a relative viability (Metformin + Navitoclax; first compound 316.23 µM) of 1.29 and a relative viability (Metformin + Navitoclax; first compound 1000 µM) of 1.09. The relative viability (Apatinib + Crizotinib; first compound 0.08 µM) was 0.801, the relative viability (Apatinib + Crizotinib; first compound 0.253 µM) was 0.569 and the relative viability (Apatinib + Crizotinib; first compound 0.8 µM) was 0.694. The relative viability (Apatinib + Crizotinib; first compound 2.53 µM) was 0.695, the relative viability (Apatinib + Crizotinib; first compound 8 µM) was 0.459 and the relative viability (Apatinib + Linsitinib; first compound 0.08 µM) was 0.875. It also gave a relative viability (Apatinib + Linsitinib; first compound 0.253 µM) of 0.879, a relative viability (Apatinib + Linsitinib; first compound 0.8 µM) of 0.819 and a relative viability (Apatinib + Linsitinib; first compound 2.53 µM) of 0.762. The relative viability (Apatinib + Linsitinib; first compound 8 µM) was 0.654.
